Experimental data as given in the NIST ThermoML archive (doi:10.1021/je100100n).
± gives the expanded uncertainty stated by the source.

Tests used:
[1] = 101.3 kPa, Liquid
[2] = xn = mol fraction of the nth substance listed; settings: 101 kPa, Liquid, x2 = 0

| mass density ([1]; 288.15 K) [kg/m3] | mass density ([1]; 298.15 K) [kg/m3] | mass density ([1]; 313.15 K) [kg/m3] | mass density ([1]; 328.15 K) [kg/m3] | mass density ([2]; 288.15 K) [kg/m3] | mass density ([2]; 298.15 K) [kg/m3] | mass density ([2]; 313.15 K) [kg/m3] | mass density ([2]; 328.15 K) [kg/m3] | Compound |
| --- | --- | --- | --- | --- | --- | --- | --- | --- |
| 805.6 ± 0.46 | 797.916 ± 0.47 | 786.069 ± 0.49 | 773.692 ± 0.51 | – | – | – | – | CC(C)CO [2-methyl-1-propanol] |
| 813.77 ± 0.45 | 806.137 ± 0.46 | 794.488 ± 0.48 | 782.477 ± 0.49 | – | – | – | – | CCCCO [butan-1-ol] |
| 1060.33 ± 0.27 | 1049.6 ± 0.26 | 1033.5 ± 0.23 | 1017.34 ± 0.2 | – | – | – | – | CCOC(=O)CC(=O)OCC [diethyl 1,3-propanedioate] |
| 794.044 ± 0.48 | 785.489 ± 0.49 | 772.42 ± 0.51 | 758.958 ± 0.53 | – | – | – | – | CCO [ethanol] |
| 796.406 ± 0.47 | 786.987 ± 0.49 | 772.74 ± 0.51 | 758.201 ± 0.53 | – | – | – | – | CO [methanol] |
| 818.801 ± 0.44 | 811.465 ± 0.45 | 800.264 ± 0.47 | 788.737 ± 0.48 | – | – | – | – | CCCCCO [pentan-1-ol] |
| 809.009 ± 0.46 | 800.973 ± 0.47 | 788.687 ± 0.48 | 775.974 ± 0.5 | – | – | – | – | CCCO [propan-1-ol] |
| 789.342 ± 0.48 | 780.99 ± 0.5 | 767.922 ± 0.52 | 754.001 ± 0.54 | – | – | – | – | CC(C)O [propan-2-ol] |
| – | – | – | – | 789.342 ± 0.48 | 780.99 ± 0.5 | 767.922 ± 0.52 | 754.001 ± 0.54 | CC(C)O [propan-2-ol] + CCOC(=O)CC(=O)OCC |
